Measured values reported in patent US7807678B2, “Peptidomimetics of biologically active metallopeptides” (Palatin Technologies, Inc., priority 2001, dated 2010).

What was measured:
[1] = target: T1, MC1-R (B-16 mouse melanoma cells) (Mus musculus, UniProt Q01727); assay: cAMP assay for agonist/antagonist status, MC1-R; type: cell-based
T1 construct: B-16 mouse melanoma cells (containing MC1-R); endogenous in cells; host or cells: B-16 mouse melanoma cells
Method: (§1) The Ki (nM) of certain peptidomimetics were determined, as was the agonist/antagonist status with respect to MC4-R, Functional evaluation of compounds at melanocortin receptors was performed by measuring the accumulation of intracellular cAMP in HEK-293 cells expressing MC3-R, MC4-R or MC5-R, and in B-16 mouse melanoma cells (containing MC1-R). Antagonistic activity was determined by measuring the inhibition of α-MSH-induced cAMP levels following exposure to the compounds. Cells, suspended in Earle's Balanced Salt Solution containing 10 mM HEPES, pH 7.5, 5 mM MgCl2, 1 mM glutamine, 0.1% albumin and 0.6 mM 3-isobutyl-1-methyl-xanthine, a phosphodiesterase inhibitor, were plated in 96 well plates at a density of 0.5×10^5 cells per well. Cells were incubated with the test compounds in the presence or absence of α-MSH for 1 hour at 37° C. cAMP levels were measured by EIA (Amersham) in the cell lysates. Data analysis and EC50 values were determined using nonlinear regression analysis with Prism Graph-Pad software.

[2] = target: T2, MC4-R (HEK-293 cells) (Homo sapiens, UniProt P32245); assay: cAMP assay for agonist/antagonist status, MC4-R; type: cell-based
T2 construct: expressed in transfected cells; host or cells: HEK-293
T2 sequence (P32245 whole entry): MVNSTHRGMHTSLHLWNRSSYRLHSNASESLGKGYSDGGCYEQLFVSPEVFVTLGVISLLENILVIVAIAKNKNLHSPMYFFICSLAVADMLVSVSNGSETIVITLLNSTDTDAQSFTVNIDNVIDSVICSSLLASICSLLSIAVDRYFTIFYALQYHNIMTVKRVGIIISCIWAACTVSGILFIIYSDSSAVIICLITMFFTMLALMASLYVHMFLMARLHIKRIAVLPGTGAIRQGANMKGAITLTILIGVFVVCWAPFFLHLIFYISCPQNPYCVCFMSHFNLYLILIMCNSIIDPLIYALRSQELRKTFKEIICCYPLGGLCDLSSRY
Method: as §1

[3] = target: T3, MC4-R (Homo sapiens, UniProt P32245); assay: Ki determination by the method of Example 4, MC4-R; type: binding; parameters: expressed in transfected cells; host or cells: HEK-293; conditions: read-out: Ki (nM) MC4-R
T3 sequence (P32245 whole entry): as above
Method: as §1

[4] = target: T1, MC1-R (B-16 mouse melanoma cells); assay: Ki determination by the method of Example 4, MC1-R; type: binding; conditions: read-out: Ki (nM) MC1-R
Method: as §1

[5] = target: T4, MC3-R (Homo sapiens, UniProt P41968); assay: Competitive inhibition binding assay, 125I-NDP-α-MSH, MC3-R; parameters: expressed in transfected cells; conditions: 1 μM compound; inhibition of 125I-NDP-α-MSH binding; mean of triplicates; results less than 0% reported as 0%
T4 sequence (P41968 whole entry): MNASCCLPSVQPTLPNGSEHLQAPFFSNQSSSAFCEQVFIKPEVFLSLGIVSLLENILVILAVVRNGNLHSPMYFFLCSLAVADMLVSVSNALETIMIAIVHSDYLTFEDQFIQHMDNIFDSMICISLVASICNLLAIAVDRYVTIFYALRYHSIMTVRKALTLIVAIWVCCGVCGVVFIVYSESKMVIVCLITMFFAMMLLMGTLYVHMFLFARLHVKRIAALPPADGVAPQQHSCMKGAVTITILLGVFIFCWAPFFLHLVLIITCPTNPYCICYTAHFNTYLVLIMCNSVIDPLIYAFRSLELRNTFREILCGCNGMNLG
Outline: (§2)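 Membranes from hMC3-R, hMC4-R or hMC5-R cells, or B-16 mouse melanoma cells (MC1-R), were incubated 90 min at room temperature with 0.4 nM 125I-NDP-α-MSH in HEPES pH 7.2 with Mg2+/Ca2+/K+, and test compound generally at 1 μM. Filter-bound radioactivity was gamma counted. Specific binding was defined with 1 μM α-MSH; triplicate means.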

[6] = target: T5, MC5-R (Homo sapiens, UniProt P33032); assay: Competitive inhibition binding assay, 125I-NDP-α-MSH, MC5-R; parameters: expressed in transfected cells; conditions: 1 μM compound; inhibition of 125I-NDP-α-MSH binding; mean of triplicates; results less than 0% reported as 0%
T5 sequence (P33032 whole entry): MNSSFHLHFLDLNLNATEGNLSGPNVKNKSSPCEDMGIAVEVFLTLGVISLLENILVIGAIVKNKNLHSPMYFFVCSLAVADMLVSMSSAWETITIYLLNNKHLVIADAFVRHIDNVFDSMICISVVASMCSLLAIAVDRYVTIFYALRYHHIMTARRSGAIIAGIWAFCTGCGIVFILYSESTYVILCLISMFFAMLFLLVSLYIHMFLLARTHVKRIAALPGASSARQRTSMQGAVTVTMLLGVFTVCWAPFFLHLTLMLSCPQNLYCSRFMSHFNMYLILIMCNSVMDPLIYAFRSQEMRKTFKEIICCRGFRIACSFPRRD
Outline: as §2

[7] = target: T4, MC3-R; assay: Ki determination by the method of Example 4, MC3-R; type: binding; parameters: expressed in transfected cells; host or cells: HEK-293; conditions: read-out: Ki (nM) MC3-R
Method: as §1

[8] = target: T3, MC4-R; assay: Competitive inhibition binding assay, 125I-NDP-α-MSH, MC4-R; parameters: expressed in transfected cells; conditions: 1 μM compound; inhibition of 125I-NDP-α-MSH binding; mean of triplicates; results less than 0% reported as 0%
Outline: as §2

[9] = target: T1, MC1-R (B-16 mouse melanoma cells); assay: Competitive inhibition binding assay, 125I-NDP-α-MSH, MC1-R; conditions: 1 μM compound; inhibition of 125I-NDP-α-MSH binding; mean of triplicates; results less than 0% reported as 0%
Outline: as §2

[10] = target: T5, MC5-R; assay: Ki determination by the method of Example 4, MC5-R; type: binding; parameters: expressed in transfected cells; host or cells: HEK-293; conditions: read-out: Ki (nM) MC5-R
Method: as §1

[11] = target: T6, MC5-R (HEK-293 cells) (Homo sapiens, UniProt P33032); assay: cAMP assay for agonist/antagonist status, MC5-R; type: cell-based
T6 construct: expressed in transfected cells; host or cells: HEK-293
T6 sequence (P33032 whole entry): as above
Method: as §1

T1 sequence (Q01727 whole entry): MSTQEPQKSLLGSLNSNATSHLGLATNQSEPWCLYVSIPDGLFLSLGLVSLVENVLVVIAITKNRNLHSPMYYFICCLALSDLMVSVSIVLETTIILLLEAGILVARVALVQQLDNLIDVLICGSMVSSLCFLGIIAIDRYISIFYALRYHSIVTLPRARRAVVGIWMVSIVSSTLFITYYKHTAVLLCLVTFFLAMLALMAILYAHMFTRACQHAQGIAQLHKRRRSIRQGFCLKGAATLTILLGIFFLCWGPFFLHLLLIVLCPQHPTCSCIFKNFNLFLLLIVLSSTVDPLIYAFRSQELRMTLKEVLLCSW

Row | SMILES | agonist/antagonist status as to MC1-R [1] | agonist/antagonist status as to MC4-R [2] | Ki [3] [nM] | Ki [4] [nM] | Inhibition at 1 μM MC3-R [5] [%] | Inhibition at 1 μM MC5-R [6] [%] | Ki [7] [nM] | Inhibition at 1 μM MC4-R [8] [%] | Inhibition at 1 μM MC1-R [9] [%] | Ki [10] [nM] | agonist/antagonist status as to MC5-R [11]
1 | N=C(N)NCCC[C@H]1C(=O)N2C(CC[C@@H]2COc2ccc3ccccc3c2)N1C(=O)[C@@H](Cc1ccccc1Cl)NC(=O)[C@@H]1C[C@@H](OCc2ccccc2)CN1 (stereo partly drawn) [Example 100] | agonist | agonist | 42 | 244 | 40 | 93 | 854 | 95 | 54 | 284 | –
2 | N=C(N)NCCC[C@H]1C(=O)N2C(CC[C@@H]2COc2ccc3ccccc3c2)N1C(=O)[C@@H](Cc1ccc(Cl)cc1Cl)NC(=O)[C@@H]1Cc2ccccc2CN1 (stereo partly drawn) [Example 112] | inactive | antagonist | 1 | 111 | 88 | 96 | 42 | 100 | 75 | 26 | antagonist
